We go through eight substances from article PMC8748493, “Helical structure motifs made searchable for functional peptide design” (Nature Communications, 2022).

Where no end group is shown, it is not given here.

In series [1] the test system is human RBCs. The class given is cell-based. On the procedure:
The hemolytic toxicity was determined by the hemolysis against human RBCs as in previous publication. First, RBCs from healthy donors were mixed with EDTA in the collecting tubes to inhibit the coagulation. Then the RBCs were washed for three repeats as follows—centrifugation at RCF 800 × g for 10 min, removal of the supernatant, and resuspension with PBS buffer. Such washed RBCs stock was finally diluted with a PBS buffer to be the 10% (v/v) RBCs solution for assays. Then total eight samples of various final concentrations (240, 120, 60, 30, 15, 7.5, 3.75, and 1.88 μg/ml) for each AMP in 96-well microplate were prepared by mixing 10% RBCs and diluted AMP solutions, respectively, at ratio 1:1 (v/v) into final volume 200 μl. All samples were placed under the condition of 37 °C for 1 h and then centrifuged at RCF 800 g for 10 min. Finally, all these supernatants from samples and controls were picked out for the measurement of optical density at the 450 nm wavelength. The data processing was performed to calculate the hemolytic percentage defined as [Asample − Acontrol−]/[Acontrol+ − Acontrol−], where Acontrol+ and Acontrol− are the measurement at wavelength 450 nm for the positive and negative controls, that are 100 μl 10% RBCs suspended in 100 μl PBS buffer with and without 2% (v/v) Triton X-100 (a known detergent to lyse the RBCs), respectively. The final hemolytic percentage for AMPs at various concentrations was determined by the mean values of three repeated experiments, and MHC5 value, defined as the minimal concentration of AMPs leading to at least 5% hemolysis of RBCs, can be determined.

The test system of series [2] is Escherichia coli ATCC 25922. The note with it: ATCC 25922, 18 h; for E. coli ATCC 25922 killed in the MIC90 experiments: 30. On the procedure:
(§1) Contrasting to the simulation results of W3_p1 and W3_p2, W3_db5 has only one Trp (W3) inserted into the bacterial membrane by the end of 1 μs simulation (Supplementary Movie 1 and Supplementary Fig. 3). […] Experiments are performed in pentaplicate and MIC90 is determined as the majority results of the 5 replicates (see “Methods”). It is worth mentioning that we could reproduce the reported MIC90 values for three published AMPs when using the same culture protocol to culture E. coli ATCC 25922. […] The latter result is consistent with the MD-based natural insertion results (Supplementary Fig. 3).
(§2) To measure the antimicrobial activity of peptides, MICs were determined by the broth-dilution assay as described in Clinical and Laboratory Standards Institute (CLSI) documents M27-A3 for yeasts[63] and M07-A9 for bacteria[64] with minor modifications. Briefly, E. coli ATCC 25922 and C. albicans SC5314 were recovered from frozen stock by growing overnight at 37 °C on LB (Luria-Bertani) and YPD (Yeast Extract-Peptone-Dextrose) agar plates, separately. A single colony of E. coli was inoculated into 5 ml LB medium and grown overnight at 37 °C with shaking at 220 rpm. Cells were then diluted into MHB (Mueller–Hinton broth) at 1:100, and grew until the optical density at 600 nm (OD600) reached 0.4 to 0.8. For C. albicans SC5314, a single colony was inoculated in YPD broth and grown overnight at 30 °C with shaking at 180 rpm. Cells from the overnight culture were subcultured into fresh YPD and grew to mid-log phase. Finally, E. coli and C. albicans cells obtained from the above-described were diluted into MHB and LYM, a modified RPMI 1640 medium[65] to a concentration of ~5 × 10^5 cells/ml and ~4 × 10^4 cells/ml, respectively. To determine the MIC values, one hundred microliters of cells was placed in each well of a clear bottom 96-well microplate, followed by independently adding 100 μl peptides with different concentrations (in MHB or LYM). The final concentrations in the wells were 120, 60, 30, 15, 7.5, 3.75, and 1.88 μg/ml for peptides, ~2.5 × 10^5 cells/ml for E. coli and ~2 × 10^4 cells/ml for C. albicans. The plate was incubated at 37 °C with shaking at 220 rpm for 18 h (E. coli) and at 180 rpm for 24 h (C. albicans). The OD600 values were measured using a iMark^TM Microplate Absorbance Reader (Bio-Rad). The MIC90 value was determined by 90% reduction in growth compared with that of the peptide-free growth control. Experiments were performed in pentaplicate, and MIC90 was determined as the majority value out of 5 repeats.

The test system of series [3] is Candida albicans SC5314. Particulars: SC5314, 24 h. On the procedure: as §1, §2
In series [4] the test system is Escherichia coli ATCC 25922. The note with it: E. coli ATCC 25922; cited from earlier work. On the procedure:
Contrasting to the simulation results of W3_p1 and W3_p2, W3_db5 has only one Trp (W3) inserted into the bacterial membrane by the end of 1 μs simulation (Supplementary Movie 1 and Supplementary Fig. 3). To further examine the bactericidal and anti-fungal activities of these AMPs, we measure the minimal inhibitory concentration (MIC90) at which the growth of 90% of the pathogenic fungus Candida albicans SC5314 and Escherichia coli ATCC 25922 can be inhibited. Experiments are performed in pentaplicate and MIC90 is determined as the majority results of the 5 replicates (see “Methods”). It is wor ...

A short description of series [5]: Circular dichroism, helicity percentage by DichroWeb. The format is physicochemical. The note with it: CD spectra 190 to 260 nm. The source says:
We found W3_db5 adopts a higher helicity than W3_n2 that is found to be more helical than W3_n1 (Fig. 5), where W3_n1 has a helicity closest to Tat, a popular cell-penetrating peptide known to take a random coil structure. This low helicity is consistent with the fact that the “WGN WGG W” stretch in W3_n1 takes mostly coil and sheet structures in its original PDB file (PDB ID: 4F54). The online software DichroWeb[44] provides a helicity percentage prediction for Tat, W3_n1, W3_n2, W3_db5, W3_p1, W3_p2, and CM15 based on their spectra data over the wavelength 190 to 260 nm wavelength −6.5, 2.0, 18.3, 60.2, 57.8, 51.2, and 54%, respectively.
Fig. 5 The CD spectra from 190 to 260 nm for all the examined peptides in the study where CM15[1],[50] is a known helical AMP and Tat, a cell-penetrating peptide (YGRKKRRQRRR) extracted from the transactivating transcriptional activator, is in a random coil structure. All the experimental data are provided as a Source data file.
A general note: Circular dichroism is widely used to follow secondary structure.

For series [6] the following is noted: cited from earlier work. The source says:
It should be carefully noted that helicity percentage is also concentration-dependent. NMR-resolved structures are usually determined at a concentration of several mM, while CD spectra measure at a few tens of μM. It has been reported by several studies that the same helical peptide resolved by NMR (at high concentration) has a higher helicity percentage than that of the same measured by CD (at a lower concentration). For instance, an intragenic AMP (PDB ID: 6VLA) has a helicity percentage of 94% according to its NMR-resolved structure but 59% by CD[48]. Similarly, an AMP from Whiteleg shrimp ...

Consider KKWLKWLKWLKKK [W3_p2], for which, in series [1], the MHC5 was determined as 90 µg/mL. Moreover, the “MIC90 vs. E. coli” value in series [2] came to 15 µg/mL. Besides, in series [3], the “MIC90 vs. C. albicans” value is 7.5 µg/mL.

For the substance “FKRIVQRIKDFLR-NH2 (C-terminus assumed) [FK13]”, the “reported MIC” value in series [4] was 27.5 µg/mL. Further, in series [2], the “MIC90 vs. E. coli” value came to 25 µg/mL.

Turning to KKWKCWARWRLKK [W3_db5], the “hemolysis reduction of human RBCs as compared to templates W3-p1 and W3-p2” value in series [1] is given as 20–40 folds. In series [2], the “MIC90 vs. E. coli” value was 30 µg/mL. Also, the “MIC90 vs. C. albicans” value in series [3] was 3.75 µg/mL.

As for KKWRKWLKWLAKK [W3_p1], in series [1], the MHC5 worked out at 120 µg/mL. The “MIC90 vs. E. coli” value in series [2] was determined as 15 µg/mL. The “MIC90 vs. C. albicans” value in series [3] was determined as 7.5 µg/mL.

Consider KKWKDWESWRLKK [W3_n2], for which, in series [2], the “MIC90 vs. E. coli” value was >>120 μg/ml and the “E. coli ATCC 25922 killed in the MIC90 experiments” value is on record as 9.5%.

With “KWKLFKKIGAVLKVL-NH2 (C-terminus assumed) [CM15]”, in series [4], the “reported MIC” value is 4.0 µg/mL. Moreover, the “helicity percentage (DichroWeb, from CD spectra)” value in series [5] worked out at 54%. In series [6], the “helicity by NMR” value is listed as 80% and the “helicity percentage by CD” value is 65%.

With “GLLKKIKWLL-NH2 (C-terminus assumed) [Anoplin-R5KT8W]”, the “reported MIC” value in series [4] is 15.1 µg/mL.

Regarding KKWGNWGGWRLKK [W3_n1], in series [2], the “MIC90 vs. E. coli” value is recorded as >>120 μg/ml and the “E. coli ATCC 25922 killed in the MIC90 experiments” value came out at 2.5%.
